# Results taken from patent US20100009935A1, “RESISTANCE-REPELLENT […] INHIBITORS” (priority 2002, published 2010).
# Like-named read-outs stand apart in the source and are kept apart here.
# Tests used:
# Assay type in all cases: cell-based
# HIV-1 clinical isolate 2 = test: PI sensitivity of PI-resistant clinical isolate 2 in PHA-PBMC, p24
# HIV-1 clinical isolate 1 = test: PI sensitivity of PI-resistant clinical isolate 1 in PHA-PBMC, p24
# [1] = tested on: HIV-1ERS104pre (wild-type clinical strain); test: PI sensitivity of wild-type clinical isolate in PHA-PBMC, p24
# HIV-1NL4-3 = tested on: HIV-1NL4-3
# HIV-1UIC-P62 = test: PI sensitivity of compound 1-selected HIV-1UIC-P62 in MT-2 cells, MTT assay; settings: Human immunodeficiency virus 1, MT2, 168 h, HIV-1UIC-P62 (L10F, A28S, M46I, I50V, A71V, N88D), day 7
# HIV-1 clinical isolate 7 = test: PI sensitivity of PI-resistant clinical isolate 7 in PHA-PBMC, p24
# [2] = tested on: highly cross-resistant HIV-1 strains derived from AIDS patients; settings: multidrug resistant patient isolates
# HIV-1Ba-L = test: microbe, parasite or virus in culture; settings: Human immunodeficiency virus 1, 168 h, PBNC (PHA-PBMC), p24 production, day 7, read-out: MEAN IC50 (μM) ± SDs
# Experimental: (§1) The sensitivities of HIV-1LAI, HIV-1Ba-L, HIV-2EHO and the primary HIV-1 isolates against various drugs were determined as previously described with minor modifications (Shiraska et al., Proc. Natl. Acad. Sci. USA, 92, 2398-2402 (1995)).
# HIV-1LAI = test: microbe, parasite or virus in culture; settings: day 7, read-out: MEAN IC50 (μM) ± SDs
# Experimental: as §1
# HIV-1APV-P30 = test: PI sensitivity of APV-selected HIV-1APV-P30 in MT-2 cells, MTT assay
# HIV-1 clinical isolate 5 = test: PI sensitivity of PI-resistant clinical isolate 5 in PHA-PBMC, p24
# HIV-1 clinical isolate 4 = test: PI sensitivity of PI-resistant clinical isolate 4 in PHA-PBMC, p24
# HIV-1 clinical isolate 8 = test: PI sensitivity of PI-resistant clinical isolate 8 in PHA-PBMC, p24
# HIV-1 clinical isolate 3 = test: PI sensitivity of PI-resistant clinical isolate 3 in PHA-PBMC, p24
# HIV-2EHO = test: Drug sensitivity of HIV-2EHO in MT-2 cells, MTT assay; settings: Human immunodeficiency virus 2, MT2, 168 h, HT-2 (footnote: MT-2 cells), day 7, read-out: MEAN IC50 (μM) ± SDs
# Experimental: as §1
# HIV-1 clinical isolate 6 = test: PI sensitivity of PI-resistant clinical isolate 6 in PHA-PBMC, p24
smiles,measurement,setting,value
"CC(C)c1nc(CN(C)C(=O)N[C@H](C(=O)N[C@@H](Cc2ccccc2)C[C@H](O)[C@H](Cc2ccccc2)NC(=O)OCc2cncs2)C(C)C)cs1 [RTV, Ritonavir]",IC50,"HIV-1 clinical isolate 2; Human immunodeficiency virus 1, isolate 2: L10I, I15V, K20R, N36I, H46L, I54V, K55R, I62V, L63P, K70D, V82A, L89N, PHA-PBMC, p24",> 1000 nM
same,FOLD CHANGE of IC50,HIV-1 clinical isolate 2; isolate 2 compared to HIV-1wt (HIV-1ERS104pre),(>23) fold
same,IC50,"HIV-1 clinical isolate 1; Human immunodeficiency virus 1, isolate 1: L10I, K14R, L33I, N36I, H46I, F53L, K55R, I62V, L63P, A71V, G73S, V82A, L90M, I93L, PHA-PBMC, p24",> 1000 nM
same,FOLD CHANGE of IC50,HIV-1 clinical isolate 1; isolate 1 compared to HIV-1wt (HIV-1ERS104pre),(>23) fold
same,IC50,"[1]; Human immunodeficiency virus 1, read-out: IC50 μM",0.044 µM
same,FOLD CHANGE of IC50,"[1]; wild type HIV-1ERS104pre, reference (=1)",(1) fold
same,FOLD CHANGE of IC50,"HIV-1NL4-3; HIV-1NL4-3, reference (=1)",(1) fold
same,IC50,"HIV-1NL4-3; Human immunodeficiency virus 1, MT2, 168 h, HIV-1NL4-3 (wild type), MT-2 cells, MTT assay, day 7",38 nM
same,IC50,HIV-1UIC-P62,55 nM
same,IC50,"HIV-1 clinical isolate 7; Human immunodeficiency virus 1, isolate 7: L10I, L24I, L33F, E35D, H36I, H37S, N46L, I54V, R57K, I62V, L63P, A71V, G73S, V82A, PHA-PBMC, p24",> 1000 nM
same,FOLD CHANGE of IC50,HIV-1 clinical isolate 7; isolate 7 compared to HIV-1wt (HIV-1ERS104pre),(>23) fold
same,antiviral activity against patient isolates with multiple mutations compared with wild type HIV strains (in words),[2],dramatically less potent
same,IC50,HIV-1Ba-L,0.038 ± 0.02 µM
same,IC50,"HIV-1LAI; Human immunodeficiency virus 1, 168 h, PBMC (PHA-PBMC), p24 production",0.04 ± 0.008 µM
same,IC50,"HIV-1LAI; Human immunodeficiency virus 1, MT2, 168 h, HT-2 (footnote: MT-2 cells), MTT assay",0.041 ± 0.005 µM
same,FOLD CHANGE of IC50,HIV-1APV-P30; HIV-1APV-P30 compared to HIV-1NL4-3 (wild type),(>26) fold
same,IC50,"HIV-1APV-P30; Human immunodeficiency virus 1, MT2, 168 h",> 1000 nM
same,IC50,"HIV-1 clinical isolate 5; Human immunodeficiency virus 1, isolate 5: L10I, K43T, N46L, I54L, L63P, A71T, V82A, L90N, D92K, PHA-PBMC, p24",> 1000 nM
same,FOLD CHANGE of IC50,HIV-1 clinical isolate 5; isolate 5 compared to HIV-1wt (HIV-1ERS104pre),(>23) fold
same,IC50,"HIV-1 clinical isolate 4; Human immunodeficiency virus 1, isolate 4: L10I, V11I, T12E, I15V, L19I, B41K, H46L, L63P, A71T, V82A, L90M, PHA-PBMC, p24",> 1000 nM
same,FOLD CHANGE of IC50,HIV-1 clinical isolate 4; isolate 4 compared to HIV-1wt (HIV-1ERS104pre),(>23) fold
same,IC50,"HIV-1 clinical isolate 8; Human immunodeficiency virus 1, isolate 8: L10R, H37D, N46I, I62V, L63P, A71V, G73S, V77I, V82T, L90M, I93L, PHA-PBMC, p24",> 1000 nM
same,FOLD CHANGE of IC50,HIV-1 clinical isolate 8; isolate 8 compared to HIV-1wt (HIV-1ERS104pre),(>23) fold
same,IC50,"HIV-1 clinical isolate 3; Human immunodeficiency virus 1, isolate 3: L10I, I15V, E35D, N37E, K45R, I54V, L63P, A71V, V82I, L90N, I93L, C95F, PHA-PBMC, p24",> 1000 nM
same,FOLD CHANGE of IC50,HIV-1 clinical isolate 3; isolate 3 compared to HIV-1wt (HIV-1ERS104pre),(>23) fold
same,IC50,HIV-2EHO,0.35 ± 0.025 µM
same,IC50,"HIV-1 clinical isolate 6; Human immunodeficiency virus 1, isolate 6: L10I, K14R, B41K, H46L, I54V, L63P, A71V, V82A, L90M, I93L, PHA-PBMC, p24",> 1000 nM
same,FOLD CHANGE of IC50,HIV-1 clinical isolate 6; isolate 6 compared to HIV-1wt (HIV-1ERS104pre),(>23) fold
